Test results reported in patent publication US20040127519A1 (Pharmacia Corporation, priority 2002, published 2004).

Assays:
U937 cell TNFα release = test: U937 Cell TNFα Release Assay (LPS-stimulated, TNFα ELISA); format: cell-based; details: Homo sapiens, U-937, U937 cells
Experimental: U937 Cell TNFα Release Assay
The human monocyte-like cell line, U937 (ATCC #CRL-1593.2), is cultured in RPMI1640 media with 10% heat-inactivated fetal calf serum (GIBCO), glutamine and pen/strep at 37° C. and 5% CO2. Differentiation of U937 to monocytic/macrophage-like cells is induced by the addition of phorbol12-myristate 13-acetate (Sigma) at final concentration of 20 ng/ml to a culture of U937 cells at ˜0.5 million cells/ml and incubated for 24 hrs. The cells are centrifuged, washed with PBS and resuspended in fresh media without PMA and incubated for 24 hrs. Cells adherent to the culture flask are harvested by scraping, centrifugation, and resuspended in fresh media to 2 million cells/ml, and 0.2 ml is aliquoted to each of 96 wells in flat-bottom plate. Cells are then incubated for an additional 24 hrs to allow for recovery. […]
ELISA plates (NUNC-Immuno™ Plate Maxisorb™ Surface) were coated with purified mouse monoclonal IgG1 anti-human TNFα antibody (R&D Systems #MAB610; 1.25 ug/ml in sodium bicarbonate pH 8.0, 0.1 ml/well) and incubated at 4° C. […] Enzymatic conversion of ABTS to colored product was measured after 5-30 minutes using a SpectroMax 340 spectrophotometer (Molecular Devices) at 405 nm. TNF levels were quantitated from a recombinant human TNFα (R&D Systems #210-TA-010) standard curve using a quadratic parameter fit generated by SoftMaxPRO software. […]

TNFα production = test: Lipopolysaccharide (LPS)-induced TNFα production in rats (Rat LPS assay, serum TNFα ELISA); format: in vivo, Lewis rats; details: 20 mpk (IP)

Structure (SMILES) | IC50 (U937 cell TNFα release) | inhibition at 20 mg/kg (TNFα production)
C=CCNc1sc2c(-c3ccc(Br)cc3)c(C#N)c(N)nc2c1C#N [Example 224, 2-(allylamino)-5-amino-7-(4-bromophenyl)thieno[3,2-b]pyridine-3,6-dicarbonitrile] | 2.9 µM | 60%
N#Cc1c(N)nc2c(c1-c1cccnc1)CCCCCC2 [Example 225, 2-amino-4-pyridin-3-yl-5,6,7,8,9,10-hexahydrocycloocta[b]pyridine-3-carbonitrile] | 6.9 µM | 88%
